Test results taken from patent US5840711A, “Compositions containing lithium inorganic salts and anti-viral drugs and method of treating viral infections such as acquired immunodeficiency syndrome” (priority 1997, dated 1998).
“Also recorded” adds a separate entry of the source. Like-named read-outs stand apart in the source and are kept apart here.

How the values were obtained:
[1] = tested on: BFU-E of Normal Bone Marrow
Procedure: (§1) The laboratory studies were performed in vitro to evaluate whether either drugs, i.e., with or without their lithium formulation when combined with either normal bone marrow cells or bone marrow cells taken from MAIDS animals would express: 1) differences in their toxicity profile when measured in culture and 2) differences comparing the responses using normal bone marrow cells versus bone marrow cells from MAIDS animals, in other words, comparing viral-infected cells with non-viral infected cells.
(§2) This table is interpreted as follows.

[2] = tested on: CFU-GM of Normal Bone Marrow
Procedure: as §1, §2

[3] = tested on: HIV-infected patients; conditions: cited from earlier work
[4] = tested on: CFU-GM (Myeloid) of normal bone marrow cells; assay: AZT bone marrow toxicity in vitro, CFU-GM colony formation; format: cell-based
Description: (§3) This is a standard practice.

[5] = tested on: HIV-positive patient with severe Factor VIII deficiency; conditions: cited from earlier work
[6] = tested on: BFU-E (Erythroid) of normal bone marrow cells; assay: AZT bone marrow toxicity in vitro, BFU-E colony formation; format: cell-based
Description: as §3

[7] = tested on: Normal Mice
Procedure: C57BL6 were administered dose-escalation AZT (1.0 mg/ml and 2.5 mg/ml) for a period of 4-weeks. […] Animals were analyzed on a weekly basis for their peripheral blood indices.
C57BL6 female mice were purchased from Harlan, Indianapolis, Ind., USA used at 6-12 weeks of age, and housed 5 to a cage. […] Mice received Purina Autoclavable Chow and water ad libitum until initiation of the study. Thereafter, water containing lithium was supplied to the animals and daily water consumption was monitored.
In order to evaluate the ability of lithium to influence the hematopoietic toxicity associated with AZT in mice that had already been exposed to AZT, the following protocol was established. […] AZT and lithium were added to the animal drinking water Groups II, III, V and VI began their AZT all at the same time. Groups V and VI, at the beginning of week 5, received lithium that was added to their water supply. All treated groups then continued to receive AZT for an additional 4 weeks, equaling a total treatment-study period lasting 8-weeks in duration.
Animals were serially sacrificed, at least three to a group, on a weekly basis, for eight consecutive weeks. Animals were bled from the tail vein (600 μl) for assessment of peripheral blood indices; i.e., packed red cell volume, white blood cell, and platelet counts. In addition, at least one femur per animal was obtained and the bone marrow cellularity was calculated using standard laboratory procedures.
Mean±SE for values comparing control with experimental, utilizing duplicate studies were determined and analyzed using the two-sample ranks test of Wilcoxam-White (P<0.05) to determine significance.

[8] = tested on: AIDS patients; conditions: clinical use; listed as zidovudine (AZT); cited from earlier work
[9] = tested on: CFU-Meg (Megakaryocyte) of normal bone marrow cells; assay: AZT bone marrow toxicity in vitro, CFU-Meg colony formation; format: cell-based
Description: as §3

[10] = tested on: LP-BM5 MuLV; conditions: cited from earlier work
[11] = tested on: herpes simplex virus; conditions: in vitro, cited from earlier work
[12] = tested on: normal bone marrow cells; conditions: in vitro with normal bone marrow cells (previous work; b10 also in vivo mice); cited from earlier work
[13] = tested on: LP-BM5 MuLV
Description: Female C57BL6 mice (8-10 weeks of age) were purchased from Harlan, Indianapolis, Ind., USA. All animals were quarantined for a minimum of 1-week before experimental use. Animals were housed in plastic cages and fed Purina lab chow and water ad libitum.
LP-BM5 MuLV isolate used in these studies was originally derived from a bone marrow stromal cell line (SC-1) harvested from animals infected with mink cell MuLV (Morse et al., 1992) and is routinely maintained in the laboratory. LP-BM5 MuLV is a retrovirus mixture containing replication-competent helper B-trophic ecotropic mink cell focus forming (MCF) virus and an etiologic 4.9-kb replication defective genome termed EM5-def, susceptibility to which depends on the presence of the FV-1b genotype permissive for B-trophic virus replication (Morse et al., 1992). Therefore, the viral pool permissive for B-trophic virus replication (Morse et al., 1992) consisted of a mixture of B-tropic ecotropic and B-tropic mink cell focus-inducing murine immunodeficiency virus (MuLV). The titers of ecotropic and MCF MuLV were determined by XC plaque assay in SC-1 cells or by SC-1 UV-mink assay. […] To minimize exogenous infection, mice were maintained in microisolator cages and handled in accordance with the NIH Guide for the Care and Use of Laboratory Animals (NIH No. 85-23, 1985). Cages, bedding and food were autoclaved prior to use and all cages and animal handling or monitoring were performed in laminar air flow hoods. Ventilation and air flow in the animal facility was set to 12 changes/h. Room temperatures were regulated at 72°±2° F. and the rooms were on automatic 12-h light/dark cycles. One hundred and twenty mice were infected by i.p. injection of 0.25 ml of LP-BM5 MuLV virus-stock (10 μg of total protein) harvested from the SC-1 cell line following 3-day in vitro culture. The development of MAIDS induced by virus was monitored by physical findings (Morse et al., 1992). […] Increased systemic levels of IgM were used to monitor the development of LP-BM5 MuLV-induced disease.
In order to evaluate the ability of lithium to influence hematopoiesis in immunodeficient virus-infected animals, the following studies were performed. One hundred and twenty mice infected with LP-BM5 were divided into two groups, i.e., 60 virus-infected mice served as virus controls and the other group was administered lithium carbonate (Li2 CO3, ultra-pure; Alpha Therapeutics, Danville, Mass. USA) placed in the drinking water at a concentration of 1 mM as previously described from this laboratory (Gallicchio et al., 1993). Lithium treatment was initiated 7 days prior to virus infection. […] Lithium was initiated 7 days before virus infection and was continued for the duration of the study. Plasma lithium levels from animals bled by cardiac puncture on the days of examination were monitored by use of flame photometry (Model no. 943, IL Instruments, Lexington, Mass. USA). Virus-infected controls and virus-infected mice treated with lithium were serially sacrificed 1, 5, 9, 13, 17 and 21 weeks following virus inoculation for determination of lithium treatment on hematopoiesis following administration in LP-BMS5 MuLV infected animals.

[14] = tested on: normal bone marrow cells; assay: AZT toxicity on normal bone marrow cells in vitro, overall; conditions: normal bone marrow cells with AZT
Procedure: These studies were performed in vitro with normal bone marrow cells incubated in the presence of AZT and Li-GLA.

[15] = week 3, Lithium Control (1 mM), listed as lithium

## 2',2'-Dideoxyinosine [ddI]
[1]
  CC50: 1 µM
[2]
  CC50: 100 µM

## 2,3'-Dideoxycytosine [ddC]
[1]
  CC50: 0.6 µM
[2]
  CC50: 10 µM

## Cc1cn([C@H]2C[C@H](N=[N+]=[N-])[C@@H](CO)O2)c(=O)[nH]c1=O [AZT, 3'-azido-3'-deoxythymidine]
[3]
  Tolerated AZT dose with lithium: up to 1,000 mg
[3]; without observable signs of toxicity (Herbert et al., 1988)
  Tolerated zidovudine dose with lithium: up to 1000 mg/day
[4]; AZT 0.01 μM
  CFU-GM (Myeloid) colonies: 53.5 ± 3
[4]; AZT 0.1 μM
  CFU-GM (Myeloid) colonies: 39.5 ± 3
[4]; AZT 1.0 μM
  CFU-GM (Myeloid) colonies: 28.5 ± 4
[4]; AZT 10.0 μM
  CFU-GM (Myeloid) colonies: 14.5 ± 3
[5]; after 6 months
  Toxicity leading to discontinuation: thrombocytopenia, neutropenia, and anemia
[6]; AZT 0.01 μM
  BFU-E (Erythroid) colonies: 43.5 ± 5
[6]; AZT 0.1 μM
  BFU-E (Erythroid) colonies: 37.5 ± 3
[6]; AZT 1.0 μM
  BFU-E (Erythroid) colonies: 21.5 ± 5
[6]; AZT 10.0 μM
  BFU-E (Erythroid) colonies: 14.5 ± 2
[7]; mouse, in vivo
  Lymphocytes and monocytes: Lower, but less significant, levels
[8]
  Toxicity of AZT: myelosuppression and bone marrow toxicity; also recorded: the development of virus resistance and bone marrow suppression
[9]; AZT 0.01 μM
  CFU-Meg (Megakaryocyte) colonies: 16.0 ± 3
[9]; AZT 0.1 μM
  CFU-Meg (Megakaryocyte) colonies: 10.5 ± 3
[9]; AZT 1.0 μM
  CFU-Meg (Megakaryocyte) colonies: 6.5 ± 3
[9]; AZT 10.0 μM
  CFU-Meg (Megakaryocyte) colonies: 2.5 ± 2

## O=C([O-])[O-].[Li+].[Li+] [Lithium, lithium carbonate]
[3]; 5 AIDS patients (report)
  Patients responding with neutrophilia: 3 of 5 patients
[3]; AIDS patients (Worthington 1990)
  Patients responding with neutrophilia: one of three
[3]
  Patients tolerating higher doses of AZT (up to 1,000 mg): 3 of the 5 patients
  Patients with significant hematopoiesis: Three of the five patients
[3]; lithium at least 4 weeks, no AZT (Parenti et al., 1988)
  Patients responding with neutrophilia: 6 of 7
[3]; no AZT (Parenti et al., 1988)
  Lithium toxicity: further lithium usage was limited due to the presence of lithium toxicity
[3]; with zidovudine (Herbert et al., 1988)
  Patients demonstrating significant hematopoiesis: Three of the 5
[5]; within 3 days, 300 mg t.i.d. with methylprednisolone
  Absolute neutrophil and platelet counts: a remarkable rise
[10]; LP-BM5 MuLV animals (Gallicchio et al., 1994)
  Splenomegaly and hypergammaglobulinemia (IgM): reduction in the splenomegaly and hypergammaglobulinemia
[10]; MAIDS model in vivo (Gallicchio et al., 1995)
  Toxicity following dose-escalation of AZT: reduced the immunochematopoietic toxicity
[10]; in vivo, with zidovudine (literature)
  Hematopoietic progenitor cells from bone marrow or spleen: effectively increased the number of hematopoietic progenitor cells
[11]; HSV
  DNA polymerase activity: inhibition of DNA polymerase activity
[12]
  Myelosuppression and marrow toxicity of AZT: reduced the myelosuppression and marrow toxicity of AZT significantly
[13]; murine model (MAIDS)
  Immune function status: significantly improves immune function status
[13]; versus animals not receiving lithium
  Hematopoiesis in MAIDS mice: significant hematopoiesis
[13]; versus viral controls
  Bone marrow BFU-E: increased BFU-E that peaked on week 9
  Bone marrow CFU-GM: increased CFU-GM compared to viral controls that peaked on week 9
  Bone marrow CFU-Meg: increased, although not until week 17 of examination
  Splenic BFU-E: increased at all time points examined
  Splenic CFU-GM: significantly increased at all time points compared to viral controls
  Splenic CFU-Meg: increased significantly
[13]; versus virus control group, FIG. 2a
  Absolute neutrophils: increased
[13]; versus virus control group, FIG. 2b
  Absolute lymphocytes: increased
[13]; versus virus-control group, FIG. 1a
  Effect on packed red cell volume (hematocrit): decreased the reduction
[13]; versus virus-control group, FIG. 1b
  Effect on white blood cell count: decreased the reduction
[13]; versus virus-control group, FIG. 1c
  Effect on platelets: decreased the reduction
[13]; virus-infected mice receiving lithium
  Signs of lithium toxicity, i.e., tremor: no demonstrable signs of lithium toxicity
[7]; AZT with lithium treatment
  Reduction in eosinophils: prevented this reduction in eosinophils observed with AZT
[7]; following lithium, each week examined, both AZT groups
  Thrombocytopenia: no thrombocytopenia
[7]; week 1, Lithium Control (1 mM)
  Eosinophils: 100 Percent Control
  Hematocrit: 98 Percent Control
  Neutrophils: 100 Percent Control
  Platelets: 100 Percent Control
[7]; week 2, Lithium Control (1 mM)
  Eosinophils: 100 Percent Control
  Hematocrit: 82 Percent Control
  Neutrophils: 54 Percent Control
  Platelets: 93 Percent Control
[7]; week 3, Lithium Control (1 mM)
  Eosinophils: 100 Percent Control
  Hematocrit: 101 Percent Control
  Neutrophils: 65 Percent Control
  Platelets: 93 Percent Control
[7]; [15]
  Neutrophils: 120 Percent Control
  Platelets: 116 Percent Control
[7]; week 4, Lithium Control (1 mM)
  Eosinophils: 100 Percent Control
  Hematocrit: 100 Percent Control
  Neutrophils: 61 Percent Control
  Platelets: 74 Percent Control
[7]; week 5, Lithium Control (1 mM)
  Eosinophils: 100 Percent Control
  Hematocrit: 98 Percent Control
  Neutrophils: 54 Percent Control
  Platelets: 69 Percent Control
[7]; week 6, Lithium Control (1 mM)
  Eosinophils: 146 Percent Control
  Hematocrit: 94 Percent Control
  Neutrophils: 98 Percent Control
  Platelets: 69 Percent Control
[7]; week 7, Lithium Control (1 mM)
  Eosinophils: 100 Percent Control
  Hematocrit: 98 Percent Control
  Neutrophils: 120 Percent Control
  Platelets: 116 Percent Control
[7]; week 8 (+ lithium from week 5 in combination group), AZT 1.0 mg/ml
  Eosinophils: 110 Percent Control
[7]; week 8 (+ lithium from week 5 in combination group), AZT 2.5 mg/ml (AZT column headed 2 mg/ml)
  Eosinophils: 164 Percent Control
[7]; week 8, lithium versus AZT controls
  Hematocrit toxicity: the same level of toxicity as the AZT controls
[7]; week 8, Lithium Control (1 mM)
  Eosinophils: 107 Percent Control
  Hematocrit: 88 Percent Control
  Neutrophils: 90 Percent Control
  Platelets: 79 Percent Control

## [Cl-].[Li+] [lithium chloride]
[14]
  Effect on AZT toxicity / colony formation: there is a reduction in AZT toxicity; however, the values never reach the level of the normal control; also recorded: reduced AZT toxicity but was not effective in increasing cell growth and colony formation
[11]
  Concentration inhibiting herpes simplex virus replication: 5 to 30 mM
[12]
  Myelosuppression and marrow toxicity of AZT: reduced the myelosuppression and marrow toxicity of AZT significantly
